Tests used:
HMEC = experiment: Bioassay for apoptosis (apoptotic EC50); format: cell-based; details: Homo sapiens, unit inferred
In short: (§1)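 1.5×10^5 cells/well; overnight attachment; compound 0.01–20 μg/mL, 1/2/3 d. Harvest floating + adherent cells, DAPI and/or TUNEL stain, microscopy. Apoptosis = condensed or fragmented chromatin or TUNEL+; reported as % cells.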

MCF-10A = experiment: Bioassay for apoptosis (apoptotic EC50); format: cell-based; details: Homo sapiens, unit inferred
In short: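 Apoptosis was quantified microscopically after 1, 2 or 3 days of exposure to test compounds (0.01–20 μg/mL). Cells showing condensed or fragmented nuclear chromatin on DAPI staining, or fragmented DNA by TUNEL, counted as apoptotic.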

PREC = experiment: Bioassay for apoptosis (apoptotic EC50); format: cell-based; details: Homo sapiens, unit inferred
In short: as §1

T47D = experiment: Bioassay for apoptosis (apoptotic EC50); format: cell-based; details: Homo sapiens, unit inferred
In short: as §1

[1] = test system: Fas ligand on the membrane of LNCaP prostate cells; experiment: Fas ligand expression on cell membrane; format: cell-based
[2] = test system: DU-145 Human Prostate Cancer Cells Transplanted into Nude Mice; experiment: Preclinical chemotherapeutic xenograft study; format: in vivo; details: for Percent mean tumor weight gain (mg) following treatments: relative to day 1 of same group
Procedure: (§2) For the preclinical chemotherapeutic studies, in the absence of an maximum tolerated dose, the mice are supplemented with 30 and 20 mgs/0.1 ml by gavage daily for 21 days. Compound 1 is dissolved in 100% ethanol at 2 grams of compound 1/5 mls of ethanol, and diluted in peanut oil (nonsupplemented vitamin E) to yield 30 and 20 mgs of compound 1 per 0.1 ml. Vehicle control consisted of a mixture of ethanol and peanut oil equivalents. The preclinical chemotherapeutic studies are conducted with compound 1, utilizing human MDA-MB-435 human breast cancer cells, human DU-145 prostate cancer cells, and human HT-20 colon tumor cells transplanted into Balb/c immune compromised nude mice.
(§3) A total of 40 immune compromised nude mice are utilized for testing each test compound (two treatment groups at 20 and 30 mg/day) in each tumor cell type. […] Tumor cells are transplanted subcutaneously into the left flank and permitted to grow to approximately 70 mg in size, test compound treatments by daily gavage are initiated, and continue for a total of 21 days. Mice are monitored daily for tumor size by caliper measurements. Mice are treated for 21 days; however, the mice are sacrificed when the tumors of the vehicle control reached 500 mg in weight. At the completion of the protocol, tumors are excised and tumor size established by weight. At the time of sacrifice, serum, tumor, and heart muscle are taken from animals in the two compound 1 test groups in order to establish levels of compound 1 via HPLC analyses (data not included). The chemotherapeutic effectiveness of compound 1 administered daily at 30 and 20 mgs/day is determined by comparing the tumor size of the two treatment groups with the vehicle control group for each of the three tumor types, and by comparing the size of the tumor in the two treatment groups with the tumor group from the positive control. Treatment is for 21 days, experiments are continued until mean weight of tumor for vehicle control reaches 500 mgs.

[3] = test system: HT-29 Human Colon Cancer Cells Transplanted into Nude Mice; experiment: Preclinical chemotherapeutic xenograft study; format: in vivo; details: for Percent mean tumor weight gain (mg) following treatments: relative to day 1 of same group
Procedure: as §2, §3

[4] = test system: MDA-MB-435 Human Breast Cancer Cells Transplanted into Nude Mice; experiment: Preclinical chemotherapeutic xenograft study; format: in vivo; details: for Percent mean tumor weight gain (mg) following treatments: relative to day 1 of same group
Procedure: as §2, §3

[5] = 20 mg/day by gavage for 21 days, day 22
[6] = 30 mg/day by gavage for 21 days, day 22

Cc1c(C)c2c(c(C)c1OCC(=O)O)CC[C@@](C)(CCC[C@H](C)CCC[C@H](C)CCCC(C)C)O2 [Compound 1, 2,5,7,8-tetramethyl-(2R-(4R,8R,12-trimethyltridecyl)chroman-6-yloxy)acetic acid]
EC50 (HMEC): > 20 µg/mL
EC50 (MCF-10A): > 20 µg/mL
EC50 (PREC): > 20 µg/mL
EC50 (T47D): > 20 µg/mL
expression of Fas ligand on the membrane [1]: enhance the expression of Fas ligand
reduction of mean tumor weight vs vehicle control [2, 5]: 31.5%
Mean tumor Weights (mg) Following Treatments ([2]; 20 mg/day gavage, day 1): 66.5 mg
Percent mean tumor weight gain (mg) following treatments ([2]; 20 mg/day gavage, day 1): 100%
Mean tumor Weights (mg) Following Treatments ([2]; 20 mg/day gavage, day 5): 103.5 mg
Percent mean tumor weight gain (mg) following treatments ([2]; 20 mg/day gavage, day 5): 155.6%
Mean tumor Weights (mg) Following Treatments ([2]; 20 mg/day gavage, day 8): 137.9 mg
Percent mean tumor weight gain (mg) following treatments ([2]; 20 mg/day gavage, day 8): 207.4%
Mean tumor Weights (mg) Following Treatments ([2]; 20 mg/day gavage, day 12): 208 mg
Percent mean tumor weight gain (mg) following treatments ([2]; 20 mg/day gavage, day 12): 312.8%
Mean tumor Weights (mg) Following Treatments ([2]; 20 mg/day gavage, day 15): 254.8 mg
Percent mean tumor weight gain (mg) following treatments ([2]; 20 mg/day gavage, day 15): 383.2%
Mean tumor Weights (mg) Following Treatments ([2]; 20 mg/day gavage, day 19): 362.2 mg
Percent mean tumor weight gain (mg) following treatments ([2]; 20 mg/day gavage, day 19): 362.2%
Mean tumor Weights (mg) Following Treatments ([2]; 20 mg/day gavage, day 22): 370.5 mg
Percent mean tumor weight gain (mg) following treatments ([2]; 20 mg/day gavage, day 22): 544.7%
reduction of mean tumor weight vs vehicle control [2, 6]: 24.8%
Mean tumor Weights (mg) Following Treatments ([2]; 30 mg/day gavage, day 1): 67.8 mg
Percent mean tumor weight gain (mg) following treatments ([2]; 30 mg/day gavage, day 1): 100%
Mean tumor Weights (mg) Following Treatments ([2]; 30 mg/day gavage, day 5): 102.5 mg
Percent mean tumor weight gain (mg) following treatments ([2]; 30 mg/day gavage, day 5): 151.2%
Mean tumor Weights (mg) Following Treatments ([2]; 30 mg/day gavage, day 8): 131.3 mg
Percent mean tumor weight gain (mg) following treatments ([2]; 30 mg/day gavage, day 8): 193.7%
Mean tumor Weights (mg) Following Treatments ([2]; 30 mg/day gavage, day 12): 241.2 mg
Percent mean tumor weight gain (mg) following treatments ([2]; 30 mg/day gavage, day 12): 355.8%
Mean tumor Weights (mg) Following Treatments ([2]; 30 mg/day gavage, day 15): 256.8 mg
Percent mean tumor weight gain (mg) following treatments ([2]; 30 mg/day gavage, day 15): 378.8%
Mean tumor Weights (mg) Following Treatments ([2]; 30 mg/day gavage, day 19): 379.9 mg
Percent mean tumor weight gain (mg) following treatments ([2]; 30 mg/day gavage, day 19): 379.9%
Mean tumor Weights (mg) Following Treatments ([2]; 30 mg/day gavage, day 22): 407 mg
Percent mean tumor weight gain (mg) following treatments ([2]; 30 mg/day gavage, day 22): 560.3%
reduction of mean tumor weight vs vehicle control [3, 5]: 33.3%
Mean tumor Weights (mg) Following Treatments ([3]; 20 mg/day gavage, day 1): 59.5 mg
Percent mean tumor weight gain (mg) following treatments ([3]; 20 mg/day gavage, day 1): 100%
Mean tumor Weights (mg) Following Treatments ([3]; 20 mg/day gavage, day 5): 84.0 mg
Percent mean tumor weight gain (mg) following treatments ([3]; 20 mg/day gavage, day 5): 141.2%
Mean tumor Weights (mg) Following Treatments ([3]; 20 mg/day gavage, day 8): 97.0 mg
Percent mean tumor weight gain (mg) following treatments ([3]; 20 mg/day gavage, day 8): 163.0%
Mean tumor Weights (mg) Following Treatments ([3]; 20 mg/day gavage, day 12): 124.6 mg
Percent mean tumor weight gain (mg) following treatments ([3]; 20 mg/day gavage, day 12): 209.4%
Mean tumor Weights (mg) Following Treatments ([3]; 20 mg/day gavage, day 15): 147.3 mg
Percent mean tumor weight gain (mg) following treatments ([3]; 20 mg/day gavage, day 15): 247.6%
Mean tumor Weights (mg) Following Treatments ([3]; 20 mg/day gavage, day 19): 198.0 mg
Percent mean tumor weight gain (mg) following treatments ([3]; 20 mg/day gavage, day 19): 332.8%
Mean tumor Weights (mg) Following Treatments ([3]; 20 mg/day gavage, day 22): 248.2 mg
Percent mean tumor weight gain (mg) following treatments ([3]; 20 mg/day gavage, day 22): 417.1%
reduction of mean tumor weight vs vehicle control [3, 6]: 34.5%
Mean tumor Weights (mg) Following Treatments ([3]; 30 mg/day gavage, day 1): 40.0 mg
Percent mean tumor weight gain (mg) following treatments ([3]; 30 mg/day gavage, day 1): 100%
Mean tumor Weights (mg) Following Treatments ([3]; 30 mg/day gavage, day 5): 83.0 mg
Percent mean tumor weight gain (mg) following treatments ([3]; 30 mg/day gavage, day 5): 139.5%
Mean tumor Weights (mg) Following Treatments ([3]; 30 mg/day gavage, day 8): 96.7 mg
Percent mean tumor weight gain (mg) following treatments ([3]; 30 mg/day gavage, day 8): 162.5%
Mean tumor Weights (mg) Following Treatments ([3]; 30 mg/day gavage, day 12): 129.3 mg
Percent mean tumor weight gain (mg) following treatments ([3]; 30 mg/day gavage, day 12): 217.3%
Mean tumor Weights (mg) Following Treatments ([3]; 30 mg/day gavage, day 15): 144.1 mg
Percent mean tumor weight gain (mg) following treatments ([3]; 30 mg/day gavage, day 15): 242.2%
Mean tumor Weights (mg) Following Treatments ([3]; 30 mg/day gavage, day 19): 176.1 mg
Percent mean tumor weight gain (mg) following treatments ([3]; 30 mg/day gavage, day 19): 296.0%
Mean tumor Weights (mg) Following Treatments ([3]; 30 mg/day gavage, day 22): 243.8 mg
Percent mean tumor weight gain (mg) following treatments ([3]; 30 mg/day gavage, day 22): 409.7%
reduction of mean tumor weight vs vehicle control ([4]; 20 mg/day by gavage for 21 days, day 21): 20.7%
Mean tumor Weights (mg) Following Treatments ([4]; 20 mg/day gavage, day 1): 70.1 mg
Percent mean tumor weight gain (mg) following treatments ([4]; 20 mg/day gavage, day 1): 100%
Mean tumor Weights (mg) Following Treatments ([4]; 20 mg/day gavage, day 4): 85.8 mg
Percent mean tumor weight gain (mg) following treatments ([4]; 20 mg/day gavage, day 4): 122.4%
Mean tumor Weights (mg) Following Treatments ([4]; 20 mg/day gavage, day 7): 123.9 mg
Percent mean tumor weight gain (mg) following treatments ([4]; 20 mg/day gavage, day 7): 176.7%
Mean tumor Weights (mg) Following Treatments ([4]; 20 mg/day gavage, day 10): 127.9 mg
Percent mean tumor weight gain (mg) following treatments ([4]; 20 mg/day gavage, day 10): 182.5%
Mean tumor Weights (mg) Following Treatments ([4]; 20 mg/day gavage, day 14): 147.2 mg
Percent mean tumor weight gain (mg) following treatments ([4]; 20 mg/day gavage, day 14): 210.0%
Mean tumor Weights (mg) Following Treatments ([4]; 20 mg/day gavage, day 17): 143.8 mg
Percent mean tumor weight gain (mg) following treatments ([4]; 20 mg/day gavage, day 17): 205.1%
Mean tumor Weights (mg) Following Treatments ([4]; 20 mg/day gavage, day 21): 179.4 mg
Percent mean tumor weight gain (mg) following treatments ([4]; 20 mg/day gavage, day 21): 255.9%
reduction of mean tumor weight vs vehicle control ([4]; 30 mg/day by gavage for 21 days, day 21): 44.6%
Mean tumor Weights (mg) Following Treatments ([4]; 30 mg/day gavage, day 1): 68.1 mg
Percent mean tumor weight gain (mg) following treatments ([4]; 30 mg/day gavage, day 1): 100%
Mean tumor Weights (mg) Following Treatments ([4]; 30 mg/day gavage, day 4): 85.7 mg
Percent mean tumor weight gain (mg) following treatments ([4]; 30 mg/day gavage, day 4): 125.8%
Mean tumor Weights (mg) Following Treatments ([4]; 30 mg/day gavage, day 7): 97.3 mg
Percent mean tumor weight gain (mg) following treatments ([4]; 30 mg/day gavage, day 7): 142.9%
Mean tumor Weights (mg) Following Treatments ([4]; 30 mg/day gavage, day 10): 98.4 mg
Percent mean tumor weight gain (mg) following treatments ([4]; 30 mg/day gavage, day 10): 144.5%
Mean tumor Weights (mg) Following Treatments ([4]; 30 mg/day gavage, day 14): 126.6 mg
Percent mean tumor weight gain (mg) following treatments ([4]; 30 mg/day gavage, day 14): 185.9%
Mean tumor Weights (mg) Following Treatments ([4]; 30 mg/day gavage, day 17): 118.7 mg
Percent mean tumor weight gain (mg) following treatments ([4]; 30 mg/day gavage, day 17): 174.3%
Mean tumor Weights (mg) Following Treatments ([4]; 30 mg/day gavage, day 21): 125.2 mg
Percent mean tumor weight gain (mg) following treatments ([4]; 30 mg/day gavage, day 21): 178.6%

— US8148424B2, “Tocopherols, tocotrienols, other chroman and side chain derivatives and uses thereof” (Research Development Foundation, priority 1998, dated 2012)
